Experimental findings from patent publication US8258151B2, “3-aminoimidazo [1,2-A] pyridine derivatives as SGLT inhibitors” (Merck Patent GmbH, priority 2006, dated 2012) are described below.

One assay addresses T1, SGLT1 (Homo sapiens, UniProt P13866).
T1 construct: expressed in transfected cells
T1 sequence (P13866 1-664): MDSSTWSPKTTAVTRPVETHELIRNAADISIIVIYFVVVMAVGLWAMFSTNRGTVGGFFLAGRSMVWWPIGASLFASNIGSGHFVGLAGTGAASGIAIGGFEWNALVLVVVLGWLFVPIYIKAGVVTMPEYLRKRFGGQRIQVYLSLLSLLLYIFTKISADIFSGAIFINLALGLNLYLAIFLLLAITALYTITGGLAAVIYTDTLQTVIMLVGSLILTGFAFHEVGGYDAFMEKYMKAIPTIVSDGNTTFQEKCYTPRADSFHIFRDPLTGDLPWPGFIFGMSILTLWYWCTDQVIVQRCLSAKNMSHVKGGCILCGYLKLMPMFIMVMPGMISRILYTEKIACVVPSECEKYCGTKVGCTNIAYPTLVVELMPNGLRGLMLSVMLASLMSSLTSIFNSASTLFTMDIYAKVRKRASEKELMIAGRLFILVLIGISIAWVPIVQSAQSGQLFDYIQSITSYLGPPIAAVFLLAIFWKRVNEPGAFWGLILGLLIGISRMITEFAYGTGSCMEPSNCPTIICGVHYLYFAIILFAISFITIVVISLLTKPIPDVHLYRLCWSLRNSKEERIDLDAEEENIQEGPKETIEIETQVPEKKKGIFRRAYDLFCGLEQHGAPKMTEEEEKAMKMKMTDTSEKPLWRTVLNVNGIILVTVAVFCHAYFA
Kind of assay: SGLT1 activity measurement: 14C-AMG uptake in BHK cells transfected with SGLT1. Type of assay: cell-based. To be noted: AMG 50 μM, 37° C., 90 min. In outline:
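BHK21 cells stably transfected with human SLC5A1 were incubated with 14C-AMG (added solution at 50 μM) ± compound for 90 min at 37 °C. The buffer was 140 mM NaCl, HEPES/Tris, pH 7.4. Lysed-cell radioactivity was counted by scintillation, and non-specific uptake was measured in sodium-free sucrose buffer.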

Another assay concerns the target T2, SGLT2 (Homo sapiens, UniProt P31639).
T2 construct: expressed in transfected cells
T2 sequence (P31639 1-672): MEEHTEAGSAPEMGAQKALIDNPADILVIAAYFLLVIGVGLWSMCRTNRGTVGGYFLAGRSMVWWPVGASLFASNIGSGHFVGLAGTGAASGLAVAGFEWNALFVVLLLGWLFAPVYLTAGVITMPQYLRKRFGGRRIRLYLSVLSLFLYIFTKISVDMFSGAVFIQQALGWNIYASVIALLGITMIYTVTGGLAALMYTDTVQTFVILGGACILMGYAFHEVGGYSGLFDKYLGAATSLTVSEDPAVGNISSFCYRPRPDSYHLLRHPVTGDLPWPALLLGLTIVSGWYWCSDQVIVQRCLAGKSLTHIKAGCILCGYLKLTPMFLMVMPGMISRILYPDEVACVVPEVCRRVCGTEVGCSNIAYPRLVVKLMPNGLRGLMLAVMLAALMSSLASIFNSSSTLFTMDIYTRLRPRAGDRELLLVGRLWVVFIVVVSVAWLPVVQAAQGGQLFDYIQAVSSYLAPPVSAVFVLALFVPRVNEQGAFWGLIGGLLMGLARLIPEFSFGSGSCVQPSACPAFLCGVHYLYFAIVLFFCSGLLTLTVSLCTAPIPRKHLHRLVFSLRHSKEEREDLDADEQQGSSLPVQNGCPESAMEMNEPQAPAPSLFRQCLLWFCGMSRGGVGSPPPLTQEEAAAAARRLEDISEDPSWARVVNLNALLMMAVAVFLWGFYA
Kind of assay: SGLT2 activity measurement: 14C-AMG uptake in BHK cells transfected with SGLT2. Type of assay: cell-based. As to conditions: AMG 2 mM, 37° C., 90 min. A digest of the protocol:
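BHK21 cells stably expressing human SGLT2 took up 14C-AMG (added as 2 mM solution) ± compound for 90 min at 37 °C in Na+-containing HEPES/Tris buffer, pH 7.4. Uptake was measured by scintillation counting after lysis. Non-specific uptake was defined in sodium-free sucrose buffer.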

A value given as a limit tells only on which side of the number the result lay.

The IC50 is the point on the concentration scale where inhibition reaches its midpoint. A low value points to higher potency.

Turning to `COc1cc(C)c(-c2nc3ccc(F)cn3c2Nc2c(C)cc(F)cc2C)c(OCC(N)=O)c1` [Compound A234, 2-[2-(Aminocarbonylmethoxy)-4-methoxy-6-methylphenyl]-3-(2,6-dimethyl-4-fluorophenyl-amino)-6-fluoroimidazo[1,2-a]pyridine], the values for the concentration for half-maximal inhibition (IC50) on SGLT1 and against SGLT2 were 1000 to 10000 nM and 10 to 1000 nM, respectively.

Take `CCc1cc(OC)cc(OCC(N)=O)c1-c1nc2ccc(F)cn2c1Nc1c(C)cc(F)cc1C` [Compound A235, 2-[2-(Aminocarbonylmethoxy)-4-methoxy-6-ethylphenyl]-3-(2,6-dimethyl-4-fluorophenyl-amino)-6-fluoroimidazo[1,2-a]pyridine]: the half-inhibitory concentration (IC50) on SGLT1 was in the range of 1000 to 10000 nM; on SGLT2 it was 10 to 1000 nM.

Turning to `COc1cc(C)c(-c2nc3ccc(F)cn3c2Nc2c(C)cccc2C(F)(F)F)c(OCC(N)=O)c1` [Compound A236, 2-[2-(Aminocarbonylmethoxy)-4-methoxy-6-methylphenyl]-3-(2-methyl-6-trifluoromethyl-phenylamino)-6-fluoroimidazo[1,2-a]pyridine], the values for the IC50 at SGLT1 and against SGLT2 were 1000 to 10000 nM and 10 to 1000 nM, respectively.

As to `COc1cc(C)c(-c2nc3c(F)cc(F)cn3c2Nc2c(C)cccc2C)c(OCC(N)=O)c1` [Compound A237, 2-[2-(Aminocarbonylmethoxy)-4-methoxy-6-methylphenyl]-3-(2,6-dimethylphenylamino)-6,8-difluoroimidazo[1,2-a]pyridine], the 50% inhibitory concentration (IC50) against SGLT1 fell in the range of 1000 to 10000 nM; against SGLT2 it was 10 to 1000 nM.

For the molecule `COc1cc(C)c(-c2nc3ccc(F)cn3c2Nc2c(Br)cc(F)cc2Br)c(OCC(N)=O)c1` [Compound A238, 2-[2-(Aminocarbonylmethoxy)-4-methoxy-6-methylphenyl]-3-(2,6-dibromo-4-fluorophenyl-amino)-6-fluoroimidazo[1,2-a]pyridine], the half-maximal inhibitory concentration (IC50) on SGLT1 lay within 1000 to 10000 nM; against SGLT2 it was 10 to 1000 nM.

As to `COc1cc(C)c(-c2nc3ccc(F)cn3c2Nc2c(Br)cc(C)cc2Br)c(OCC(N)=O)c1` [Compound A239, 2-[2-(Aminocarbonylmethoxy)-4-methoxy-6-methylphenyl]-3-(2,6-dibromo-4-methylphenyl-amino)-6-fluoroimidazo[1,2-a]pyridine], the IC50 on SGLT1 and on SGLT2 was 10 to 1000 nM throughout.

On to `CCc1cccc(OCC(N)=O)c1-c1nc2ccc(F)cn2c1Nc1c(C)cccc1C` [Compound A240, 2-[2-(Aminocarbonylmethoxy)-6-ethylphenyl]-3-(2,6-dimethylphenylamino)-6-fluoroimidazo-[1,2-a]pyridine], for which the half-inhibitory concentration (IC50) on SGLT1 lay within 1000 to 10000 nM; against SGLT2 it was 10 to 1000 nM.

For the molecule `CCc1cccc(OCC(N)=O)c1-c1nc2ccc(F)cn2c1Nc1c(Cl)cccc1Cl` [Compound A241, 2-[2-(Aminocarbonylmethoxy)-6-ethylphenyl]-3-(2,6-dichlorophenylamino)-6-fluoroimidazo-[1,2-a]pyridine], the IC50 at SGLT1 and against SGLT2 was 10 to 1000 nM throughout.

`COc1cc(C)c(-c2nc3ccc(F)cn3c2Nc2c(F)cccc2C(F)(F)F)c(OCC(N)=O)c1` [Compound A242, 2-[2-(Aminocarbonylmethoxy)-4-methoxy-6-methylphenyl]-3-(2-fluoro-6-trifluoromethyl-phenylamino)-6-fluoroimidazo[1,2-a]pyridine]: the half-maximal inhibitory concentration (IC50) on SGLT1 lay within 1000 to 10000 nM; against SGLT2, 10 to 1000 nM.

Regarding `COc1cc(C)c(-c2nc3ccc(F)cn3c2Nc2c(F)cccc2Br)c(OCC(N)=O)c1` [Compound A243, 2-[2-(Aminocarbonylmethoxy)-4-methoxy-6-methylphenyl]-3-(2-fluoro-6-bromophenylamino)-6-fluoroimidazo[1,2-a]pyridine], the values for the half-maximal inhibitory concentration (IC50) against SGLT1 and on SGLT2 were 1000 to 10000 nM and 10 to 1000 nM, respectively.

For `COc1cc(C)c(-c2nc3ccc(F)cn3c2Nc2c(F)cc(F)cc2F)c(OCC(N)=O)c1` [Compound A244, 2-[2-(Aminocarbonylmethoxy)-4-methoxy-6-methylphenyl]-3-(2,4,6-trifluorophenylamino)-6-fluoroimidazo[1,2-a]pyridine], the results for the IC50 against SGLT1 and against SGLT2 were 1000 to 10000 nM and 10 to 1000 nM, respectively.

With `CCc1cc(OC)cc(OCC(N)=O)c1-c1nc2ccc(F)cn2c1Nc1c(C)cc(C(=O)OC)cc1C` [Compound A245, 2-[2-(Aminocarbonylmethoxy)-4-methoxy-6-ethylphenyl]-3-(2,6-dimethyl-4-methoxycarbonyl-phenylamino)-6-fluoroimidazo[1,2-a]pyridine], the results for the IC50 against SGLT1 and on SGLT2 were > 10000 nM and 1000 to 10000 nM, respectively.

As to `COC(=O)c1cccc(C)c1Nc1c(-c2c(C)cc(OC)cc2OCC(N)=O)nc2ccc(F)cn12` [Compound A246, 2-[2-(Aminocarbonylmethoxy)-4-methoxy-6-methylphenyl]-3-(2-methyl-6-methoxycarbonyl-phenylamino)-6-fluoroimidazo[1,2-a]pyridine], the results for the IC50 against SGLT1 and at SGLT2 were > 10000 nM and 1000 to 10000 nM, respectively.

As to `CCc1cc(OC)cc(OCC(N)=O)c1-c1nc2ccc(F)cn2c1Nc1c(C)cccc1C(F)(F)F` [Compound A247, 2-[2-(Aminocarbonylmethoxy)-4-methoxy-6-ethylphenyl]-3-(2-methyl-6-trifluoromethylphenyl-amino)-6-fluoroimidazo[1,2-a]pyridine], the IC50 at SGLT1 is > 10000 nM; on SGLT2, 10 to 1000 nM.

For `COc1cc(C)c(-c2nc3ccc(F)cn3c2Nc2c(F)cccc2Cl)c(OCC(N)=O)c1` [Compound A248, 2-[2-(Aminocarbonylmethoxy)-4-methoxy-6-methylphenyl]-3-(2-fluoro-6-chlorophenylamino)-6-fluoroimidazo[1,2-a]pyridine], the IC50 against SGLT1 is > 10000 nM; on SGLT2 it was 10 to 1000 nM.

For `COc1cc(C)c(-c2nc3ccc(F)cn3c2Nc2c(C)cc(Br)c(C)c2Br)c(OCC(N)=O)c1` [Compound A249, 2-[2-(Aminocarbonylmethoxy)-4-methoxy-6-methylphenyl]-3-(2,5-dimethyl-4,6-dibromophenylamino)-6-fluoroimidazo[1,2-a]-pyridine], the IC50 against SGLT1 and against SGLT2 was 1000 to 10000 nM in each case.

`COc1cc(C)c(-c2nc3ccc(F)cn3c2Nc2c(C)cc(C)cc2[N+](=O)[O-])c(OCC(N)=O)c1` [Compound A250, 2-[2-(Aminocarbonylmethoxy)-4-methoxy-6-methylphenyl]-3-(2,4-dimethyl-6-nitrophenyl-amino)-6-fluoroimidazo[1,2-a]pyridine]: the concentration for half-maximal inhibition (IC50) on SGLT1 was > 10000 nM; at SGLT2, 10 to 1000 nM.

For the molecule `COc1cc(C)c(-c2nc3c(F)cc(F)cn3c2Nc2c(C)cc(F)cc2C)c(OCC(N)=O)c1` [Compound A251, 2-[2-(Aminocarbonylmethoxy)-4-methoxy-6-methylphenyl]-3-(2,6-dimethyl-4-fluorophenyl-amino)-6,8-difluoroimidazo[1,2-a]pyridine], the values for the IC50 on SGLT1 and at SGLT2 were 1000 to 10000 nM and 10 to 1000 nM, respectively.

With `COc1cc(C)c(-c2nc3ccc(F)cn3c2Nc2c(F)cc(Br)cc2F)c(OCC(N)=O)c1` [Compound A252, 2-[2-(Aminocarbonylmethoxy)-4-methoxy-6-methylphenyl]-3-(2,6-difluoro-4-bromophenyl-amino)-6-fluoroimidazo[1,2-a]pyridine], the half-maximal inhibitory concentration (IC50) against SGLT1 and against SGLT2 was 1000 to 10000 nM throughout.
